Laboratory results: patent US11084783B2, “O-alkyl-benzylideneguanidine derivatives and therapeutic use for the treatment of disorders associated with an accumulation of misfolded proteins” (INFLECTIS BIOSCIENCE, priority 2014, dated 2021)

Columns and labels:
[1] = test system: interferon-gamma injured rat oligodendrocytes; assay: In vitro multiple sclerosis model: interferon-gamma injured rat oligodendrocytes co-cultured with neurons; type: cell-based; conditions: interferon-gamma 70 U/ml, 48 H; total number of O4 cells
Procedure: Neurons/OPC were cultured as previously describes by Yang et al. (2005 J Neurosci Methods;149(1) pp50-6) with modifications. Briefly, the full brain (without cerebellum) obtained from 17-day old rat embryos (Wistar, Janvier labs) were removed. The full brains were treated for 20 min at 37° C. with a trypsin-EDTA (Pan Biotech) solution at a final concentration of 0.05% trypsin and 0.02% EDTA. The dissociation was stopped by addition of Dulbecco's modified Eagle's medium (DMEM) with 4.5 g/liter of glucose (Pan Biotech), containing DNAse I grade II (final concentration 0.5 mg/ml; Pan Biotech, Batch: h140508) and 10% fetal calf serum (FCS; Invitrogen, Batch: 41Q7218K). Cells were mechanically dissociated by three forced passages through the tip of a 10-ml pipette. Cells were then centrifuged at 515 g for 10 min at 4° C. The supernatant was discarded, and the pellet was resuspended in a defined culture medium consisting of Neurobasal medium (Invitrogen, Batch: 1636133) with a 2% solution of B27 supplement (Invitrogen, Batch: 1660670), 2 mmol/liter of L-glutamine (Pan Biotech), 2% of PS solution, and, 1% of FCS and 10 ng/ml of platelet derived growth factor (PDGF-AA, Batch: H131205). The cells were seeded at a density of 20 000 cells per well in 96 well plates precoated with PLL (BD corning, Batch: 6614022) and laminine (Sigma, Batch: 083M4034V). The plates were maintained at 37° C. into a humidified incubator, in an atmosphere of air (95%)-CO2 (5%). Half of the medium was changed every 2 days with fresh medium. On days 18, test compounds were pre-incubated 1 hour before interferon-gamma (70 U/ml, 48H, R&D system, Batch: AAL2214081) application.
On day 18 of culture, test compounds (4 concentrations) were solved in culture medium and then pre-incubated with oligodendrocyte co-cultured with neurons for 1 hour before the interferon-gamma (70 U/ml, 48H) application. […]
For each condition, 30 pictures per well were taken using ImageXpress (Molecular Device) with 20× magnification. […] All values were expressed as mean +/−SEM (s.e.mean) (n=6 wells per condition).

INS1 insulinoma cell = assay: INS1 cell line cytoprotection from ER stress (tunicamycin); type: cell-based; conditions: 6 hour exposure to tunicamycin 2.5 μg/mL, different concentrations, viability 72h
Procedure: Cells were plated in 96 well plates at a density of 0.5.10^6 cells/mL for Min6 cell line, 0,4.10^6 cells/mL for INS1 cell line the day before the treatment. ER stress was elicited by addition of 2.5 μg/mL tunicamycin (Sigma Aldrich) together with phosphatases inhibitors. Media were changed 6h later with fresh media and the cytoprotection was maintained by the addition of phosphatases inhibitors. Cell viability was assessed by measuring the reduction of WST-8 into formazan using Cell Counting Kit-8 (Sigma) according to the supplier's recommendation, 72h after tunicamycin treatment.

Row | SMILES | protection of interferon-gamma injured rat oligodendrocytes (FIG. 2) [1] | prevention of INS1 insulinoma cell death (FIG. 8) (INS1 insulinoma cell)
1 | CCONC(=N)N/N=C/c1c(Cl)cccc1Cl [Compound 11, 2-(2,6-dichlorobenzylidene)-N-ethoxyhydrazinecarboximidamide] | dose dependent protection | prevent INS1 insulinoma cell death
2 | CCCONC(=N)N/N=C/c1ccccc1Cl [Compound 12, 2-(2-chlorobenzylidene)-N-propoxyhydrazinecarboximidamide] | dose dependent protection | prevent INS1 insulinoma cell death
3 | CCONC(=N)N/N=C/c1c(F)cccc1Cl [Compound 17, 2-(2-chloro-6-fluorobenzylidene)-N-ethoxyhydrazinecarboximidamide] | dose dependent protection | prevent INS1 insulinoma cell death
